Laboratory results from ChEMBL document CHEMBL4002567, “Rational design and synthesis of 1,5-disubstituted tetrazoles as potent inhibitors of the MDM2-p53 interaction” (Eur J Med Chem, 2017).

Tests used:
[1] = biological target: T1, Protein Mdm4 (Homo sapiens, UniProt O15151)
T1 sequence (O15151 whole entry): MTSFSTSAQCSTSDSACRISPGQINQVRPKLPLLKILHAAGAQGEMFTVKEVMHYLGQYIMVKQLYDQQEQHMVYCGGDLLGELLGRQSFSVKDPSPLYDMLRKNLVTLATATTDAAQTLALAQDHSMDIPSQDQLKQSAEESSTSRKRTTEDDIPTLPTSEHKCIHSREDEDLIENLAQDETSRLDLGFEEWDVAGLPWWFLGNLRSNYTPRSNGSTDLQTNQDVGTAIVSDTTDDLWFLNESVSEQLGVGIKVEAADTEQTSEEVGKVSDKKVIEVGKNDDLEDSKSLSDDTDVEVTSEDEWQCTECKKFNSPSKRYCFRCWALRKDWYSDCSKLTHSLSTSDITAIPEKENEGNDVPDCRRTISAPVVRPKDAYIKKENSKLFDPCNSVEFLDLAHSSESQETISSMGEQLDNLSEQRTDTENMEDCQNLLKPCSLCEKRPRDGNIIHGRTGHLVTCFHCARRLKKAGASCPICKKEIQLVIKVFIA

[2] = biological target: E3 ubiquitin-protein ligase Mdm2 (Homo sapiens, UniProt Q00987)
E3 ubiquitin-protein ligase Mdm2, sequence (Q00987 whole entry): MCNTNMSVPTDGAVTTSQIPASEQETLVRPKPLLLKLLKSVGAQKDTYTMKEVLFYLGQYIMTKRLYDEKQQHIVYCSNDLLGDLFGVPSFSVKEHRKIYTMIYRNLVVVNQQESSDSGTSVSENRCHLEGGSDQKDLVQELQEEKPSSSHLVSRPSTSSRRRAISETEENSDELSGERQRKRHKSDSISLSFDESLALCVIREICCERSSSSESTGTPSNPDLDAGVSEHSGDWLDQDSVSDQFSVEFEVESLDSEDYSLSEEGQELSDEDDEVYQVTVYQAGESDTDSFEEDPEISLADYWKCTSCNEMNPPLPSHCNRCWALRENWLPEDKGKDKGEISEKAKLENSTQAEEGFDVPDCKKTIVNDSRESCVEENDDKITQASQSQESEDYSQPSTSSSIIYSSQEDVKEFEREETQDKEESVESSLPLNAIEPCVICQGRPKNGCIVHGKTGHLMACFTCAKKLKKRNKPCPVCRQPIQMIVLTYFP

Ki ([2]; read-out: Ki) | SMILES | Ki [1] | Ki [2]
– | O=C(O)c1[nH]c2cc(Cl)ccc2c1C(NCC1CCCCC1)c1nnnn1Cc1ccc(OCc2ccccc2Cl)cc1 (configuration not stated) | Not Active | –
– | CCOC(=O)c1[nH]c2cc(Cl)ccc2c1C(NC1CCCC1)c1nnnn1-c1cccc(Oc2ccccc2)c1 (configuration not stated) | Not Active | Not Active
– | O=C(O)c1[nH]c2cc(Cl)ccc2c1C(NC1CCCCC1)c1nnnn1-c1ccc(OCc2ccccc2)cc1 (configuration not stated) | Not Active | –
– | CCOC(=O)c1[nH]c2cc(Cl)ccc2c1C(NCc1ccc(Cl)cc1)c1nnnn1Cc1ccc(Cl)cc1 (configuration not stated) | Not Active | Not Active
– | CCOC(=O)c1[nH]c2cc(Cl)ccc2c1C(NCC1CCCCC1)c1nnnn1Cc1ccc(Cl)cc1 (configuration not stated) | Not Active | Not Active
– | CCCCCNC(c1c(C(=O)O)[nH]c2cc(Cl)ccc12)c1nnnn1-c1ccc(F)c(Cl)c1 (configuration not stated) | Not Active | –
– | O=C(O)c1[nH]c2cc(Cl)ccc2c1C(NC1CCCCCC1)c1nnnn1-c1cccc(OCc2ccccc2)c1 (configuration not stated) | Not Active | –
– | CCCCCNC(c1c(C(=O)OCC)[nH]c2cc(Cl)ccc12)c1nnnn1-c1ccc(OCc2c(Cl)cccc2Cl)cc1 (configuration not stated) | Not Active | Not Active
– | CCOC(=O)c1[nH]c2cc(Cl)ccc2c1C(NCc1ccc(Cl)cc1)c1nnnn1Cc1ccc(OCc2ccccc2Br)cc1 (configuration not stated) | Not Active | Not Active
– | CCOC(=O)c1[nH]c2cc(Cl)ccc2c1C(NCC1CCCCC1)c1nnnn1-c1ccc(OCc2ccccc2Br)cc1 (configuration not stated) | Not Active | Not Active
– | O=C(O)c1[nH]c2cc(Cl)ccc2c1C(NCC1CCCCC1)c1nnnn1Cc1ccc(OCc2ccccc2F)cc1 (configuration not stated) | Not Active | –
– | O=C(O)c1[nH]c2cc(Cl)ccc2c1C(NC1CCCC1)c1nnnn1-c1cccc(OCc2ccccc2)c1 (configuration not stated) | Not Active | –
– | CCCCCNC(c1c(C(=O)OCC)[nH]c2cc(Cl)ccc12)c1nnnn1-c1ccc(C(C)C)cc1 (configuration not stated) | Not Active | Not Active
– | CCOC(=O)c1[nH]c2cc(Cl)ccc2c1C(NC1CCCCC1)c1nnnn1-c1cccc(OCc2ccccc2)c1 (configuration not stated) | Not Active | Not Active
– | O=C(O)c1[nH]c2cc(Cl)ccc2c1C(NCC1CCCCC1)c1nnnn1Cc1ccc(Cl)cc1 (configuration not stated) | Not Active | –
– | O=C(O)c1[nH]c2cc(Cl)ccc2c1C(NCC1CCCCC1)c1nnnn1-c1ccc(OCc2c(Cl)cccc2Cl)cc1 (configuration not stated) | Not Active | –
– | CCOC(=O)c1[nH]c2cc(Cl)ccc2c1C(NC1CCCCCC1)c1nnnn1-c1cccc(Oc2ccccc2)c1 (configuration not stated) | Not Active | Not Active
– | CCCCCNC(c1c(C(=O)O)[nH]c2cc(Cl)ccc12)c1nnnn1Cc1ccc(OCc2ccccc2Cl)cc1 (configuration not stated) | Not Active | –
– | CCCCCNC(c1c(C(=O)OCC)[nH]c2cc(Cl)ccc12)c1nnnn1-c1ccc(OCc2ccccc2Br)cc1 (configuration not stated) | Not Active | Not Active
– | CCOC(=O)c1[nH]c2cc(Cl)ccc2c1C(NC1CCCCC1)c1nnnn1-c1ccc(OCc2ccccc2)cc1 (configuration not stated) | Not Active | Not Active

Ki ([2]; read-out: Ki) | SMILES | Ki [1] | Ki [2]
– | O=C(O)c1[nH]c2cc(Cl)ccc2c1C(NCC1CCCCC1)c1nnnn1-c1ccc(OCc2ccc(Br)cc2)cc1 (configuration not stated) | Not Active | –
– | CCOC(=O)c1[nH]c2cc(Cl)ccc2c1C(NCC1CCCCC1)c1nnnn1-c1ccc(OCc2ccc(Br)cc2)cc1 (configuration not stated) | Not Active | Not Active
– | O=C(O)c1[nH]c2cc(Cl)ccc2c1C(NC1CCCC1)c1nnnn1-c1cccc(Oc2ccccc2)c1 (configuration not stated) | Not Active | –
– | CCOC(=O)c1[nH]c2cc(Cl)ccc2c1C(NCC1CCCCC1)c1nnnn1-c1ccc(F)c(Cl)c1 (configuration not stated) | Not Active | Not Active
– | CCOC(=O)c1[nH]c2cc(Cl)ccc2c1C(NC1CCCCC1)c1nnnn1-c1cccc(Oc2ccccc2)c1 (configuration not stated) | Not Active | Not Active
– | CCCCCNC(c1c(C(=O)OCC)[nH]c2cc(Cl)ccc12)c1nnnn1-c1ccc(Cl)cc1 (configuration not stated) | Not Active | Not Active
– | O=C(O)c1[nH]c2cc(Cl)ccc2c1C(NC1CCCCC1)c1nnnn1-c1cccc(Oc2ccccc2)c1 (configuration not stated) | Not Active | –
– | CCCCCNC(c1c(C(=O)O)[nH]c2cc(Cl)ccc12)c1nnnn1Cc1ccc(OCc2ccccc2Br)cc1 (configuration not stated) | Not Active | –
– | O=C(O)c1[nH]c2cc(Cl)ccc2c1C(NC1CCCC1)c1nnnn1-c1ccc(OCc2ccccc2)cc1 (configuration not stated) | Not Active | –
– | O=C(O)c1[nH]c2cc(Cl)ccc2c1C(NC1CCC1)c1nnnn1-c1ccc(OCc2ccccc2Br)cc1 (configuration not stated) | Not Active | –
– | CCOC(=O)c1[nH]c2cc(Cl)ccc2c1C(NCC1CCCCC1)c1nnnn1Cc1ccc(OCc2ccccc2Cl)cc1 (configuration not stated) | Not Active | Not Active
– | CCOC(=O)c1[nH]c2cc(Cl)ccc2c1C(NC1CCCCCC1)c1nnnn1-c1ccc(OCc2ccccc2)cc1 (configuration not stated) | Not Active | Not Active
– | CCCCCNC(c1c(C(=O)OCC)[nH]c2cc(Cl)ccc12)c1nnnn1-c1ccc(F)c(Cl)c1 (configuration not stated) | Not Active | Not Active
– | CC(C)c1ccc(-n2nnnc2C(NCC2CCCCC2)c2c(C(=O)O)[nH]c3cc(Cl)ccc23)cc1 (configuration not stated) | Not Active | –
– | CCCCCNC(c1c(C(=O)OCC)[nH]c2cc(Cl)ccc12)c1nnnn1Cc1ccc(Cl)cc1 (configuration not stated) | Not Active | Not Active
– | O=C(O)c1[nH]c2cc(Cl)ccc2c1C(NCC1CCCCC1)c1nnnn1-c1ccc(F)c(Cl)c1 (configuration not stated) | Not Active | –
– | CCOC(=O)c1[nH]c2cc(Cl)ccc2c1C(NCC1CCCCC1)c1nnnn1-c1ccc(OCc2c(Cl)cccc2Cl)cc1 (configuration not stated) | Not Active | Not Active
– | O=C(O)c1[nH]c2cc(Cl)ccc2c1C(NC1CCCCCC1)c1nnnn1-c1ccc(OCc2ccccc2)cc1 (configuration not stated) | Not Active | –
– | O=C(O)c1[nH]c2cc(Cl)ccc2c1C(NC1C2CC3CC(C2)CC1C3)c1nnnn1-c1ccc(OCc2ccccc2Br)cc1 (configuration not stated) | Not Active | –
– | CCOC(=O)c1[nH]c2cc(Cl)ccc2c1C(NC1CCCCCC1)c1nnnn1-c1cccc(OCc2ccccc2)c1 (configuration not stated) | Not Active | Not Active

Ki ([2]; read-out: Ki) | SMILES | Ki [1] | Ki [2]
– | CCCCCNC(c1c(C(=O)O)[nH]c2cc(Cl)ccc12)c1nnnn1-c1ccc(OCc2ccc(Br)cc2)cc1 (configuration not stated) | Not Active | –
– | O=C(O)c1[nH]c2cc(Cl)ccc2c1C(NCc1ccc(Cl)cc1)c1nnnn1Cc1ccc(Cl)cc1 (configuration not stated) | Not Active | –
– | CCOC(=O)c1[nH]c2cc(Cl)ccc2c1C(NC1CCC1)c1nnnn1-c1ccc(OCc2ccccc2Br)cc1 (configuration not stated) | Not Active | Not Active
– | CCCCCNC(c1c(C(=O)OCC)[nH]c2cc(Cl)ccc12)c1nnnn1Cc1ccc(OCc2ccccc2F)cc1 (configuration not stated) | Not Active | –
– | CCOC(=O)c1[nH]c2cc(Cl)ccc2c1C(NCC1CCCCC1)c1nnnn1Cc1ccc(OCc2ccccc2Br)cc1 (configuration not stated) | Not Active | Not Active
– | CCCCCNC(c1c(C(=O)O)[nH]c2cc(Cl)ccc12)c1nnnn1-c1ccc(OCc2c(Cl)cccc2Cl)cc1 (configuration not stated) | Not Active | –
– | O=C(O)c1[nH]c2cc(Cl)ccc2c1C(NC1CCCCCC1)c1nnnn1-c1cccc(Oc2ccccc2)c1 (configuration not stated) | Not Active | –
– | O=C(O)c1[nH]c2cc(Cl)ccc2c1C(NC1CCCCC1)c1nnnn1-c1cccc(OCc2ccccc2)c1 (configuration not stated) | Not Active | –
– | O=C(O)c1[nH]c2cc(Cl)ccc2c1C(NCc1ccc(Cl)cc1)c1nnnn1Cc1ccc(OCc2ccccc2Br)cc1 (configuration not stated) | Not Active | –
– | CCCCCNC(c1c(C(=O)O)[nH]c2cc(Cl)ccc12)c1nnnn1-c1ccc(OCc2ccccc2Br)cc1 (configuration not stated) | Not Active | –
– | O=C(O)c1[nH]c2cc(Cl)ccc2c1C(NCC1CCCCC1)c1nnnn1Cc1ccc(OCc2ccccc2Br)cc1 (configuration not stated) | Not Active | –
– | CCCCCNC(c1c(C(=O)O)[nH]c2cc(Cl)ccc12)c1nnnn1Cc1ccc(Cl)cc1 (configuration not stated) | Not Active | –
– | CCOC(=O)c1[nH]c2cc(Cl)ccc2c1C(NC1CCCC1)c1nnnn1-c1ccc(OCc2ccccc2)cc1 (configuration not stated) | Not Active | Not Active
117 µM | CCOC(=O)c1[nH]c2cc(Cl)ccc2c1C(NCC1CCCCC1)c1nnnn1-c1ccc(Cl)cc1 (configuration not stated) | – | –
– | CCCCCNC(c1c(C(=O)O)[nH]c2cc(Cl)ccc12)c1nnnn1-c1ccc(C(C)C)cc1 (configuration not stated) | Not Active | –
– | CCCCCNC(c1c(C(=O)OCC)[nH]c2cc(Cl)ccc12)c1nnnn1-c1ccc(OCc2ccc(Br)cc2)cc1 (configuration not stated) | Not Active | Not Active
– | CCCCCNC(c1c(C(=O)OCC)[nH]c2cc(Cl)ccc12)c1nnnn1Cc1ccc(OCc2ccccc2Br)cc1 (configuration not stated) | Not Active | Not Active
– | CCCCCNC(c1c(C(=O)O)[nH]c2cc(Cl)ccc12)c1nnnn1-c1ccc(Cl)cc1 (configuration not stated) | Not Active | –
– | O=C(O)c1[nH]c2cc(Cl)ccc2c1C(NCC1CCCCC1)c1nnnn1-c1ccc(OCc2ccccc2Br)cc1 (configuration not stated) | Not Active | –
– | CCCCCNC(c1c(C(=O)OCC)[nH]c2cc(Cl)ccc12)c1nnnn1Cc1ccc(OCc2ccccc2Cl)cc1 (configuration not stated) | Not Active | Not Active
